Laboratory results taken from US20250111889A1, “DE NOVO DESIGNED MACROCYCLIC OLIGOAMIDES” (UNIVERSITY OF WASHINGTON, priority 2022, published 2025).
Where a SMILES comes first, the peptide text is derived from it. Bridges are numbered along the chain shown (N, C = ends). [ ]: non-standard residue; d: D form. Trp(6-Cl) = N[C@@H](Cc1c[nH]c2cc(Cl)ccc12)C(=O)O; NMePhe(2,4-Me2) = CN[C@@H](Cc1ccc(C)cc1C)C(=O)O; dNMePhe(2,4-Me2) = CN[C@H](Cc1ccc(C)cc1C)C(=O)O; NMePhe(2-Me) = CN[C@@H](Cc1ccccc1C)C(=O)O; NMeNva = CCC[C@H](NC)C(=O)O

Assays:
MCL-1 = molecular target: T1, MCL-1 (Homo sapiens, UniProt Q07820); assay: MCL-1 assay (HTRF, Anti-GST-Tb); format: binding; details: 10-dose singlet, 3-fold serial dilution starting at 200 uM; HTRF signal after 60 min
T1 construct: GST
T1 sequence (Q07820 whole entry, species assumed): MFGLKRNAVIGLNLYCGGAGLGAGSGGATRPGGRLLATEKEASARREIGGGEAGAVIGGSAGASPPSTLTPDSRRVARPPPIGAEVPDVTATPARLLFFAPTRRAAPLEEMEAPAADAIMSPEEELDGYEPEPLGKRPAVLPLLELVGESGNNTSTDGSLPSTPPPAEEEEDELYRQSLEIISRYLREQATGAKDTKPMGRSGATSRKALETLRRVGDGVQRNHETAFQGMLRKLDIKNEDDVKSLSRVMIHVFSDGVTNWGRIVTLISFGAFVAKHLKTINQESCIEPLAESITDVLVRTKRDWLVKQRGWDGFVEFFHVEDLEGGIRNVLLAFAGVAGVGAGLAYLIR
Description: MCL-1: The compounds were tested in 10-dose IC50 singlet with a 3-fold serial dilution starting at 200 uM. Compounds in DMSO were added to enzyme solution by using Acoustic Technology. Compounds were incubated with enzyme for 10 min. at room temperature. Respective compounds were then added, and the mixture incubated for another 10 min. Finally, Anti-GST-Tb was added. After 60 min incubation, the HTRF signal was measured.

SARS-CoV-2 main protease = molecular target: T2, SARS-CoV-2 main protease (Severe acute respiratory syndrome coronavirus 2, UniProt P0DTD1); assay: SARS-CoV-2 main protease assay (fluorescence time-course); format: biochemical; details: 10-dose singlet, 3-fold serial dilution starting at 200 uM; increase in fluorescence signal
T2 construct: SARS-CoV-2 main protease
Description: SARS-CoV-2 main protease: The compounds were tested in 10-dose IC50 singlet with a 3-fold serial dilution starting at 200 uM. The protease activities were monitored as a time-course measurement of the increase in fluorescence signal.

MDM2 = molecular target: T3, MDM2 (Homo sapiens, UniProt Q00987); assay: MDM2 assay (commercial alphalisa kit, PerkinElmer AL3168C); format: binding; details: alphalisa kit per manufacturer's instructions; quantity not given
T3 construct: purchased PerkinElmer AL3168C
T3 sequence (Q00987 whole entry): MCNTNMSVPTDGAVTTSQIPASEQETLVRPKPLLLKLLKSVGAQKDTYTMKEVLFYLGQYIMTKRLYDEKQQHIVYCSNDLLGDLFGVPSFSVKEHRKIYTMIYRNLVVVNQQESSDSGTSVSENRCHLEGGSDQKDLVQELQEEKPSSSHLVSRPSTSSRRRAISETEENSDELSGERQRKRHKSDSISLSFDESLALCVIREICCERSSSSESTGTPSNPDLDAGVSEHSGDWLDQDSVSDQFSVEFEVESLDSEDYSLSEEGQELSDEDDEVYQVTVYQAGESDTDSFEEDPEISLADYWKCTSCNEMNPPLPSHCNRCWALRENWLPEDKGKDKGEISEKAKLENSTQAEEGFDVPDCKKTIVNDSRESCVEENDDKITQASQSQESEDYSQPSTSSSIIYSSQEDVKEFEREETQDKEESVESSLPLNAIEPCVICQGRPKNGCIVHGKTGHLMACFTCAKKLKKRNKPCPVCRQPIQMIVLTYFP
Description: MDM2: The assay was performed using a commercially available alphalisa assay kit from PerkinElmer (part number AL3168C) following the manufacturer's instructions.

in vitro = in vitro ADME; details: PAMPA
Description: We measured the passive membrane diffusion of all 29 macrocycles designed with the two approaches using the parallel artificial membrane permeability assay (PAMPA) (FIGS. 3, 4, and 16). Almost all of the macrocycles were quite membrane permeable: 16 of the 29 had log(Papp)'s greater than −6, and only three were not detected in the acceptor well. Under the same conditions, the small molecule drug propranolol achieved log(Papp) of −5.36 (FIG. 16). As expected, designs with exposed polar groups, particularly side chain hydroxyls and primary amides, had lower permeabilities. Overall, the hydrogen-bond containing designs were more permeable than the torsionally-optimized based designs, likely due to fewer exposed backbone polar groups.
PAMPA: Stock solutions of each peptide were prepared gravimetrically by dissolving ca. 1-3 mg of peptide in either 100% MeOH or 100% DMSO to produce ca. 1-10 mM peptide solutions. These stock solutions were stored at 4° C. when not in use. Samples for PAMPA experiments and calibration curves were prepared by diluting these stock solutions to produce 1.2 mL of 20 uM peptide in PBS supplemented with either 5% DMSO, or 10% MeOH. […] The concentration of each peptide in the donor and acceptor wells was quantified by LCMS after approximately 19 hours. […]

SMILES | IC50 (MCL-1) [nM] | IC50 (SARS-CoV-2 main protease) [nM] | also measured
CN1C(=O)CN(Cc2cccc(Br)c2)C(=O)CCCCNC(=O)[C@@H](Cc2ccc(C(C)(C)C)cc2)NC(=O)[C@@H]1Cc1ccc(Cl)c(Cl)c1 [Compound 121] | 50100 |  | 
O=C1C[C@H](Cc2cccc(Cl)c2)NC(=O)[C@H](Cc2cccnc2)NC(=O)[C@H](Cc2cccc(Cl)c2)NC(=O)Cc2ccccc2N1 [Compound 143] |  | 2650 | 
Cc1ccc(C[C@@H]2C(=O)N[C@@H](Cc3c[nH]c4cc(Cl)ccc34)C(=O)N(C)[C@@H](Cc3ccccc3C)C(=O)N[C@H](C(N)=O)CSCC(=O)N2C)c(C)c1 [Compound 35] ({CH2CO}-[dNMePhe(2,4-Me2)][Trp(6-Cl)][NMePhe(2-Me)]C-NH2; thioether N-4) |  |  | IC50 (MDM2): 20000 nM
Cc1ccccc1C[C@@H]1NC(=O)Cc2ccccc2NC(=O)C[C@H](Cc2cc(F)c(F)cc2F)NC(=O)[C@H](Cc2cccnc2)NC1=O [Compound 140] |  | 1530 | 
O=C1C[C@H](Cc2c(F)c(F)c(F)c(F)c2F)NC(=O)[C@H](Cc2cccnc2)NC(=O)[C@H](Cc2cccc(C(F)(F)F)c2)NC(=O)Cc2ccccc2N1 [Compound 131] |  | 4070 | 
Cc1cccc(C[C@H]2CC(=O)Nc3ccccc3CC(=O)N[C@@H](Cc3ccccc3C)C(=O)N[C@@H](Cc3cccnc3)C(=O)N2)c1 [Compound 135] |  | 1470 | 
Cc1ccccc1C[C@@H]1NC(=O)Cc2ccccc2NC(=O)C[C@H](Cc2ccccc2Cl)NC(=O)[C@H](Cc2cccnc2)NC1=O [Compound 133] |  | 844 | 
COc1cccc(CCN2CC(=O)N[C@@H](C(C)C)CC(=O)NCc3cccc(c3)CC(=O)N[C@@H](Cc3ccc(Cl)c(Cl)c3)C2=O)c1 [Compound 29] | 22800 |  | 
O=C1C[C@H](Cc2ccccc2Cl)NC(=O)[C@H](Cc2cccnc2)NC(=O)[C@H](Cc2cccc(Cl)c2)NC(=O)Cc2ccccc2N1 [Compound 132] |  | 1250 | 
O=C1C[C@H](Cc2ccc(Br)cc2)NC(=O)[C@H](Cc2cccnc2)NC(=O)[C@H](Cc2cccc(Cl)c2)NC(=O)Cc2ccccc2N1 [Compound 134] |  | 1220 | 
Cc1ccc(C[C@@H]2NC(=O)CCCCNC(=O)CN(CCOc3c(C)cccc3C)C(=O)[C@@H](Cc3ccc(Cl)c(Cl)c3)N(C)C2=O)cc1 [Compound 119] | 18900 |  | 
Cc1ccccc1C[C@@H]1NC(=O)Cc2ccccc2NC(=O)C[C@H](Cc2c(F)c(F)c(F)c(F)c2F)NC(=O)[C@H](Cc2cccnc2)NC1=O [Compound 139] |  | 2370 | 
COc1cccc(CCN2CC(=O)N[C@H]3CC[C@H](CC3)CC(=O)N(CCc3ccc(C(F)(F)F)cc3)CC(=O)N(Cc3ccc(Cl)c(Cl)c3)CC2=O)c1 [Compound 18] | 28200 |  | 
CC(C)NCC(O)COc1cccc2ccccc12 (centres unmarked) [propranolol] |  |  | Papp at 20 uM (in vitro): 4.37 ×10⁻⁶ cm/s
Cc1ccccc1C[C@@H]1NC(=O)Cc2ccccc2NC(=O)C[C@H](Cc2ccc(Cl)c(Cl)c2)NC(=O)[C@H](Cc2cccnc2)NC1=O [Compound 142] |  | 1890 | 
COc1cc(CN2CC(=O)NCc3ccccc3C(=O)N[C@@H](Cc3ccc(Cl)c(Cl)c3)C(=O)N(CCc3ccc(F)cc3)CC2=O)cc(OC)c1 [Compound 16] | 13500 |  | 
Cc1cccc(C[C@H]2CC(=O)Nc3ccccc3CC(=O)N[C@@H](Cc3cccc(C(F)(F)F)c3)C(=O)N[C@@H](Cc3cccnc3)C(=O)N2)c1 [Compound 138] |  | 2140 | 
Cc1ccccc1C[C@@H]1NC(=O)Cc2ccccc2NC(=O)C[C@H](Cc2ccccc2)NC(=O)[C@H](Cc2cccnc2)NC1=O [Compound 218] |  | 17800 | 
Cc1ccccc1CN1CC(=O)N[C@H](C(C)(C)C)C(=O)NCc2cccc(c2)CC(=O)N[C@H](Cc2ccc(Cl)c(Cl)c2)CC1=O [Compound 11] | 4580 |  | 
O=C1C[C@H](Cc2ccc(Br)cc2)NC(=O)[C@H](Cc2cccnc2)NC(=O)[C@H](Cc2cccc(C(F)(F)F)c2)NC(=O)Cc2ccccc2N1 [Compound 137] |  | 1270 | 
O=C1C[C@H](Cc2ccc(Cl)c(Cl)c2)NC(=O)[C@H](Cc2cccnc2)NC(=O)[C@H](Cc2cccc(C(F)(F)F)c2)NC(=O)Cc2ccccc2N1 [Compound 136] |  | 1470 | 
CCOCCN1CC(=O)NCc2ccccc2C(=O)N[C@@H](Cc2ccc(Cl)c(Cl)c2)C(=O)N(CCc2ccc(F)cc2)CC1=O [Compound 19] | 40600 |  | 
O=C1C[C@H](Cc2ccc(F)cc2)NC(=O)[C@H](Cc2cccnc2)NC(=O)[C@H](Cc2cccc(Cl)c2)NC(=O)Cc2ccccc2N1 [Compound 141] |  | 1840 | 
O=C1C[C@H](Cc2ccccc2Cl)NC(=O)[C@H](Cc2cccnc2)NC(=O)[C@H](Cc2cccc(C(F)(F)F)c2)NC(=O)Cc2ccccc2N1 [Compound 144] |  | 1260 | 
CCC(CC)[C@H]1NC(=O)CN(Cc2ccc(Cl)c(Cl)c2)C(=O)[C@H](Cc2ccc(C(C)(C)C)cc2)NC(=O)CCCCNC1=O [Compound 122] | 12300 |  | 
CCC[C@H]1C(=O)N[C@@H](Cc2c[nH]c3cc(Cl)ccc23)C(=O)N(C)[C@@H](Cc2ccc(C)cc2C)C(=O)N[C@H](C(N)=O)CSCC(=O)N1C [Compound 32] ({CH2CO}-[NMeNva][Trp(6-Cl)][NMePhe(2,4-Me2)]C-NH2; thioether N-4) |  |  | IC50 (MDM2): 100000 nM
